Holding throughout (assay): FLIPR calcium signal, HEK-293(EBNA) cells
Common to all, as to type: cell-based

In one assay the target is T1, hEP1 (Homo sapiens, UniProt P34995).
T1 construct: expressed in transfected cells; host or cells: HEK-293(EBNA) cells
T1 sequence (P34995 1-402): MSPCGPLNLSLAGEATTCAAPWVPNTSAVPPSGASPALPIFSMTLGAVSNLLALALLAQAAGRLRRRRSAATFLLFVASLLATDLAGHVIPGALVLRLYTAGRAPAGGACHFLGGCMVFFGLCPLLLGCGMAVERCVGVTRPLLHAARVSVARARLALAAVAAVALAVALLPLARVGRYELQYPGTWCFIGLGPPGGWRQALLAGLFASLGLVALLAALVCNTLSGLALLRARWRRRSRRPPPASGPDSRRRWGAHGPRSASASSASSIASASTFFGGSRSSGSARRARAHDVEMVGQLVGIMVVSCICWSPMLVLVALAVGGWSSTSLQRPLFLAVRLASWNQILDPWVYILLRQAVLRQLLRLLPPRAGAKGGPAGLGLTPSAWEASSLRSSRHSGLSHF

The target in a further assay is T2, hEP2/Gqs5 (Homo sapiens, UniProt P43116).
T2 construct: expressed in transfected cells; host or cells: HEK-293(EBNA) cells
T2 sequence (P43116 whole entry): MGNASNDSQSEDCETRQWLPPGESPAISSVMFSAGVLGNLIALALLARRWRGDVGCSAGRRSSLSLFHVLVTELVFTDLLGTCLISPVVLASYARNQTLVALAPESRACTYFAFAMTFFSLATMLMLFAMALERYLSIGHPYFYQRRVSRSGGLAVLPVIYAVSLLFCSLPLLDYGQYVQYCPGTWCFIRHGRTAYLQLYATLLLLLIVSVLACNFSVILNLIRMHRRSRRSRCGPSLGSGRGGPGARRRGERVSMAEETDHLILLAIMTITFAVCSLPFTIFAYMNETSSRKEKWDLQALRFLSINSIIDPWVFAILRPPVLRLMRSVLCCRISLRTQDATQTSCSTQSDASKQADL
The essentials: (§1)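 Peak Fluo-4 fluorescence (2 µM dye loading, 45 min) was recorded in HEK-293(EBNA) cells stably expressing each human receptor, in HBSS-HEPES pH 7.4 at 37 °C. Signals were expressed relative to buffer and standard agonist controls: PGE2 (EP2, EP4), PGF2 (FP), carbacyclin (IP). Compounds were tested at 10^−5 M or from 10^−5 to 10^−11 M, in duplicate, n≧3.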

A further assay addresses T3, hEP3A/Gqi5 (Homo sapiens, UniProt P43115).
T3 construct: expressed in transfected cells; host or cells: HEK-293(EBNA) cells
T3 sequence (P43115 1-390): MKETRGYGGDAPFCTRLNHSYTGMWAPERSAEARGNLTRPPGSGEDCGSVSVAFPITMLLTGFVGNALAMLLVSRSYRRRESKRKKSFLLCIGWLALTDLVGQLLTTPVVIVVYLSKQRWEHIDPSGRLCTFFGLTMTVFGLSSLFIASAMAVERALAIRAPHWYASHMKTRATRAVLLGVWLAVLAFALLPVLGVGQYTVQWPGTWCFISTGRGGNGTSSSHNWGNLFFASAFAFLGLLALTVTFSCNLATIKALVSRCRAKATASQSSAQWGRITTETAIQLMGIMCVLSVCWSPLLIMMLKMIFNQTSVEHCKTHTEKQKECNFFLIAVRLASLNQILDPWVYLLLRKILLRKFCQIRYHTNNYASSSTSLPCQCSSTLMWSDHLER

The target in another assay is T4, hEP4/Gqs5 (Homo sapiens, UniProt P35408).
T4 construct: expressed in transfected cells; host or cells: HEK-293(EBNA) cells
T4 sequence (P35408 whole entry): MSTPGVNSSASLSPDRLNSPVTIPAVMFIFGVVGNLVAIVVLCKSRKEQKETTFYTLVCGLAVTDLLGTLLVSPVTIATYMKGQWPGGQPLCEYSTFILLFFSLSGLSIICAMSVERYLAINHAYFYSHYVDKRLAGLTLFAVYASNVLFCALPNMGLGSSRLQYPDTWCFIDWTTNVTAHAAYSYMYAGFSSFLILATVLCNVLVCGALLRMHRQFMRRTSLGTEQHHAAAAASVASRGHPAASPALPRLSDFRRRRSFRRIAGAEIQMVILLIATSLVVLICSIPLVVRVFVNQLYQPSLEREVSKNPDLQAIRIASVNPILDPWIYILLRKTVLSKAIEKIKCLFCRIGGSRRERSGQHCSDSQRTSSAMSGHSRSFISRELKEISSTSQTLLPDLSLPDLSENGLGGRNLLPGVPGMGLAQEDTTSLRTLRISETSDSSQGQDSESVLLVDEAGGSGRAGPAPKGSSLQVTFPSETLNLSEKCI
In short, it runs like this: as §1

For a further assay, the target named is T5, hTP (Homo sapiens, UniProt P21731).
T5 construct: expressed in transfected cells; host or cells: HEK-293(EBNA) cells
T5 sequence (P21731 1-343): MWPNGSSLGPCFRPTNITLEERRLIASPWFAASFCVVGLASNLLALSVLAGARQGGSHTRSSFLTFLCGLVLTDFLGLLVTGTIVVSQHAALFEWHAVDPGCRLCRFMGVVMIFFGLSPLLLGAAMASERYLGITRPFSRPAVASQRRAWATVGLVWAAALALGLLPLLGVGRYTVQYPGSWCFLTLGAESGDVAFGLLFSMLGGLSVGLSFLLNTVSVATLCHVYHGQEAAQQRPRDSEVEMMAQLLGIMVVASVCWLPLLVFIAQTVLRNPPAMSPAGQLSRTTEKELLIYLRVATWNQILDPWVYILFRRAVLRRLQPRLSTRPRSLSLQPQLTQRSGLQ

[1] abbreviates: Table 1, first part, triplicate, read-out: functional data (EC50) hEP1.
The mark [2] stands for this setting: Table 1, second part, quantity not given, values match functional data (EC50) of first part, read-out: Other Receptors hEP1.
[3] abbreviates: Table 1, first part, triplicate, read-out: functional data (EC50) hEP2.
Where [4] appears, read: Table 1, first part, data represents a single experiment, read-out: functional data (EC50) hEP3A*.
Setting [5] is: Table 1, second part, quantity not given, values match functional data (EC50) of first part, read-out: Other Receptors hEP3.
Where [6] appears, read: Table 1, first part, triplicate, read-out: functional data (EC50) hEP4.
The mark [7] stands for this setting: Table 1, first part, triplicate, read-out: functional data (EC50) hTP.
The mark [8] stands for this setting: Table 1, second part, quantity not given, values match functional data (EC50) of first part, read-out: Other Receptors hTP.
Where [9] appears, read: Table 1, second part, read-out: hEP2 flipr EC50.
[10] abbreviates: Table 1, second part, read-out: hEP4 flipr EC50.

pEC50: −log10 of the molar value. Read-outs that look alike come from different tables or passages of the source.

Regarding `O=C(O)CCCCCC[C@@H]1[C@@H](COc2ccccc2)[C@H](O)C[C@H]1Cl` [Example 10, 7-((1R,2S,3R,5R)-5-Chloro-3-hydroxy-2-phenoxymethyl-cyclopentyl)-heptanoic acid], the pEC50 on hEP1 (setting [1]) was less than 5.00; at hEP1 (setting [2]) it was less than 5.00; at hEP2/Gqs5 (setting [3]), 6.91; on hEP3A/Gqi5 (setting [4]), 5.45; on hEP3A/Gqi5 (setting [5]), 5.45; on hEP4/Gqs5 (setting [6]), 5.14. Also, the pEC50 at hTP (setting [7]) and at hTP (setting [8]) was less than 5.00 each time.
As for `O=C(O)CCC/C=C\C[C@@H]1[C@@H](COc2ccccc2)[C@H](O)C[C@H]1Cl` [Example 8, (Z)-7-((1R,2S,3R,5R)-5-Chloro-3-hydroxy-2-phenoxymethyl-cyclopentyl)-hept-5-enoic acid], the pEC50 on hEP1 (setting [1]) was less than 5.00; at hEP1 (setting [2]) it was less than 5.00; at hEP2/Gqs5 (setting [3]) it was 6.64; on hEP3A/Gqi5 (setting [4]) it was 5.13; at hEP3A/Gqi5 (setting [5]), 5.13; on hEP4/Gqs5 (setting [6]) it was 5.49. The pEC50 at hTP (setting [7]) and on hTP (setting [8]) was less than 5.00 in each case.
As to “(Z)-7-((1R,5S)-2-Oxo-5-phenoxymethyl-cyclopent-3-enyl)-hept-5-enoic acid [Example 3]”, the pEC50 is less than 5.00 on hEP1 (setting [2]); less than 5.00 on hEP2/Gqs5 (setting [3]); 5.29 at hEP2/Gqs5 (setting [9]); 4.73 at hEP3A/Gqi5 (setting [5]); 6.44 on hEP4/Gqs5 (setting [6]); less than 5.00 at hEP4/Gqs5 (setting [10]). Also, on hTP (setting [8]), the pEC50 was less than 5.00.
For “(Z)-7-((1R,2S,3R)-3-Hydroxy-5-oxo-2-phenoxymethyl-cyclopentyl)-hept-5-enoic acid [Example 4]”, the pEC50 on hEP1 (setting [1]) is less than 5.00; on hEP2/Gqs5 (setting [3]) it was 5.29; on hEP2/Gqs5 (setting [9]), less than 5.00; on hEP3A/Gqi5 (setting [4]), 4.73; on hEP4/Gqs5 (setting [6]), less than 5.00; at hEP4/Gqs5 (setting [10]), 6.44. On hTP (setting [7]), the pEC50 was less than 5.00.
With `O=C(O)CCCCCC[C@H]1C(=O)CC[C@@H]1COc1ccccc1` [Example 6, 7-((1R,5S)-2-Oxo-5-phenoxymethyl-cyclopentyl)-heptanoic acid], the pEC50 at hEP2/Gqs5 (setting [3]) was 6.14; at hEP3A/Gqi5 (setting [4]), 5.45; at hEP3A/Gqi5 (setting [5]) it was 5.45; on hEP4/Gqs5 (setting [6]), 5.10; on hTP (setting [7]), less than 5.00; at hTP (setting [8]), less than 5.00.
For the compound `O=C(O)CCC/C=C\C[C@@H]1[C@@H](COc2cc(Cl)cc(Cl)c2)[C@H](O)C[C@H]1Cl` [Example 12, (Z)-7-[(1R,2S,3R,5R)-5-Chloro-2-(3,5-dichloro-phenoxymethyl)-3-hydroxy-cyclopentyl]-hept-5-enoic acid], the pEC50 is less than 5.00 at hEP1 (setting [1]); less than 5.00 on hEP1 (setting [2]); 9.10 at hEP2/Gqs5 (setting [3]); 9.10 on hEP2/Gqs5 (setting [9]); 5.90 on hEP3A/Gqi5 (setting [4]); 5.90 at hEP3A/Gqi5 (setting [5]). Moreover, the pEC50 at hEP4/Gqs5 (setting [6]) is 7.32; on hEP4/Gqs5 (setting [10]) it was 7.32; on hTP (setting [7]), less than 5.00; at hTP (setting [8]), less than 5.00.
With `O=C(O)CCCCCC[C@@H]1[C@@H](COc2cc(Cl)cc(Cl)c2)[C@H](O)C[C@H]1Cl` [Example 14, 7-[(1R,2S,3R,5R)-5-Chloro-2-(3,5-dichloro-phenoxymethyl)-3-hydroxy-cyclopentyl]-heptanoic acid], the pEC50 at hEP1 (setting [1]) is less than 5.00; on hEP1 (setting [2]) it was less than 5.00; on hEP2/Gqs5 (setting [3]), 7.62; at hEP3A/Gqi5 (setting [4]), 5.46; on hEP3A/Gqi5 (setting [5]), 5.46; on hEP4/Gqs5 (setting [6]), 6.82. Also, the pEC50 on hTP (setting [7]) and on hTP (setting [8]) was less than 5.00 each time.

For the origin of these results see patent publication US7635716B2, “Substituted cyclopentanes or cyclopentanones as therapeutic agents” (Allergan, Inc., priority 2005, dated 2009).
